Test system: Jurkat (JM) cells
Experiment: Staining of proliferating Jurkat cells with labelling agent and propidium iodide, fluorescence microscopy
Type: cell-based
Details: 10 μL agent (100 μg pr. mL DMSO) added to 90 μL cells, only exception PI positive cells
Protocol: (§1) Materials and Methods. Jurkat (JM) cells were grown at 37° C. in a humidified air atmosphere with 5% CO2 in RPMI (Invitrogen, #61870) supplemented with 10% heat-inactivated fetal bovine serum (Invitrogen, #10108-165). 90 μL proliferating Jurkat cells (cell density 1.2×10^6, 99% viable determined using the NC-100 NucleoCounter system following the manufacturer's (ChemoMetec A/S) protocol) were added 10 μL NAM (N-(9-acridinyl)maleimide, Sigma, #01665, CAS no. 49759-20-8) dissolved in DMSO (100 μg NAM pr. mL DMSO) and mixed by pipetting. Cells were loaded into a NucleoCassette, containing the DNA stain propidium iodide (PI). The cells were investigated using an Olympus IX50 fluorescence microscope, and images were captured using a Lumenera CCD camera and in-house developed software. PI and NAM fluorescence were detected using, respectively, U-MWG2 (green long pass: 510-550 nm) and U-MNUA2 (UV band pass, 330-385 nm) filter cubes (Olympus).
as §1, with “1.0×10^6,” for “1.2×10^6,”, “(ChemoMetec)” for “(ChemoMetec A/S)”, “CPM (7-diethylamino-3-[4′-maleimidylphenyl]-4-methylcoumarin, Chemodex Ltd.,” for “NAM (N-(9-acridinyl)maleimide, Sigma, #01665,”, “76877-33-3)” for “49759-20-8)”, “CPM” for “NAM”
as §1, with “1.1×10^6, 98%” for “1.2×10^6, 99%”, “(ChemoMetec)” for “(ChemoMetec A/S)”, “PM (N-(1-Pyrenyl)maleimide, Sigma P7908” for “NAM (N-(9-acridinyl)maleimide, Sigma, #01665,”, “42189-56-0)” for “49759-20-8)”, “PM” for “NAM”, “Cells were loaded into a NucleoCassette, containing the DNA stain propidium iodide (PI).” left out
Materials and Methods. […] 90 μL proliferating Jurkat cells (cell density 1.1×10^6, 98% viable determined using the NC-100 NucleoCounter system following the manufacturer's (ChemoMetec) protocol) were added 10 μL CPI (7-diethylamino-3-((4′-(iodoacetyl)amino)phenyl)-4-methylcoumarin, Sigma 78264 CAS no. 76877-34-4) dissolved in DMSO (100 μg CPI pr. mL DMSO) and mixed by pipetting. […] The cells were investigated using an Olympus IX50 fluorescence microscope, and images were captured using a Lumenera CCD camera and in-house developed software. PI and CPI fluorescence were detected using, respectively, U-MWG2 (green long pass: 510-550 nm) and U-MNUA2 (UV band pass, 330-385 nm) filter cubes (Olympus). […]

O=C1C=CC(=O)N1c1c2ccccc2nc2ccccc12 [NAM, N-(9-acridinyl)maleimide]
staining of cells (UV filter) versus PI positive cells: nearly all cells in the proliferating Jurkat cell culture were stained by NAM

From patent publication US9128097B2, “Method and kit for assessing viable cells” (ChemoMetec A/S, priority 2008, dated 2015)
